Measurements reported in US10987342B2, “Methods and compositions for transdermal delivery of a non-sedative amount of dexmedetomidine” (Teikoku Pharma USA, Inc., priority 2013, dated 2021).
Read-outs that look alike come from different tables or passages of the source.

With Cc1cccc([C@H](C)c2cnc[nH]2)c1C [dexmedetomidine, Dexmedetomidine] the solubility of dexmedetomidine (in Duro-Tak 87-2979) was “less than 2%”, the solubility of dexmedetomidine (in Duro-Tak 387/87-2353 (acid functionalized acrylate polymer)) was 10-15% and the solubility of dexmedetomidine (in hydroxyl functionalized acrylate polymer) was “less than 1%”. It also gave a solubility of dexmedetomidine (in levulinic acid) of roughly 60% and a solubility of dexmedetomidine (in oleic acid) of roughly 40%.
